Assays:
human glucagon receptor [1] = target: T1, human glucagon receptor (Homo sapiens (Human), UniProt P47871); test: Human Glucagon SPA Assay (binding of [125I]Glucagon-Cex); conditions: membrane from chem-1 cells stably transfected with the human glucagon receptor, Ki by Cheng-Prusoff equation
Procedure: The Glucagon SPA assay is used to determine the ability of test compounds to block the binding of glucagon-cex to the glucagon receptor. Test compounds are re-suspended and serially diluted in 100% DMSO. 1 μl of test compound at the desired concentrations is spotted into the appropriate wells of 96 well low binding white clear bottom plate (Corning). 1 μl of DMSO is spotted into total binding wells. 1 μl of a known glucagon antagonist at a concentration of 20 μM is added to non specific binding wells. […] All assay ingredients with the exception of test compounds are re-suspended in the following buffer; 50 mM Hepes pH 7.4; 5 mM MgCl2; 1 mM CaCl; 5% glycerol and 0.2% BSA. Following a 6-10 hr incubation at room temperature the amount of hot ligand bound to the cell membranes is determined by reading the plates on a Wallac Trilux radioactive emission detector. Data is analyzed using Pfizer's Data analysis program. IC50 values are then determined from the generated sigmoidal dose response curves. Ki values are calculated using Cheng-Prusoff equation. N is the number of times the compound was assayed.

human glucagon receptor [2] = target: T1, human glucagon receptor; test: Glucagon cAMP Assay (Cisbio cAMP detection); type: cell-based; conditions: CHOK1 cells stably transfected with the human glucagon receptor; block of glucagon induced cAMP production; Kb by modified Cheng-Prusoff equation

T1 sequence (P47871 26-477): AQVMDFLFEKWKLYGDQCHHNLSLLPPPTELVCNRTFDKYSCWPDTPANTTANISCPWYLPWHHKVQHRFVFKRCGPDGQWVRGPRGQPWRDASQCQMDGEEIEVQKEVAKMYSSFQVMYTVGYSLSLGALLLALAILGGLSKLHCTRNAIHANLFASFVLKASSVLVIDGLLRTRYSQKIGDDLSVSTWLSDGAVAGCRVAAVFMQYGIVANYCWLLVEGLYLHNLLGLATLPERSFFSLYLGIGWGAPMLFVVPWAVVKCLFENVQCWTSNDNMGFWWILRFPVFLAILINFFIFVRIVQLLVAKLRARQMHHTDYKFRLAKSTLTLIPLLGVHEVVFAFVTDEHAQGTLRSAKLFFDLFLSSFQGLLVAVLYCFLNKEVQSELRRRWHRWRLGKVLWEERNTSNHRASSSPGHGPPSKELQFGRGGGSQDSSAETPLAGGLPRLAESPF

Row | SMILES | Ki (human glucagon receptor [1]) [nM] | Kb (human glucagon receptor [2]) [nM]
1 | CCC[C@@H](Nc1ccc(-n2cc(C(C)(C)C)cn2)nc1)c1ccc(C(=O)NCCC(=O)O)cc1 (single isomer, unassigned) [Example 136, 3-(4-(1-(6-(4-tert-butyl-1H-pyrazol-1-yl)pyridin-3-ylamino)butyl)benzamido)propanoic acid] | 30.2 | 222
2 | CCC[C@@H](Nc1ccc(-n2cc(C(C)(C)C)cn2)nc1)c1ccc(C(=O)NCCC(=O)O)cc1 (single isomer, unassigned) [Example 137, 3-(4-(1-(6-(4-tert-butyl-1H-pyrazol-1-yl)pyridin-3-ylamino)butyl)benzamido)propanoic acid] | 20.2 | 27
3 | Cc1cc(OC(c2ccc(C(=O)NCCC(=O)O)cc2)C2CCC2)cc(C)c1-n1cc(C(F)(F)F)cn1 (single isomer, unassigned) [Example 138, 3-(4-(cyclobutyl(3,5-dimethyl-4-(4-(trifluoromethyl)-1H-pyrazol-1-yl)phenoxy)methyl)benzamido)propanoic acid] | 5.75 | 40
4 | CC(C)C[C@H](Nc1ccc(C(=O)NCCC(=O)O)cn1)c1ccc(-n2cc(C(F)(F)F)cn2)nc1 (single isomer, unassigned) [Example 142, 3-(6-(3-methyl-1-(6-(4-(trifluoromethyl)-1H-pyrazol-1-yl)pyridin-3-yl)butylamino)nicotinamido)propanoic acid] | 636 | 883
5 | CC(C)C[C@H](Nc1ccc(C(=O)NCCC(=O)O)cn1)c1ccc(-n2cc(C(F)(F)F)cn2)nc1 (single isomer, unassigned) [Example 143, 3-(6-(3-methyl-1-(6-(4-(trifluoromethyl)-1H-pyrazol-1-yl)pyridin-3-yl)butylamino)nicotinamido)propanoic acid] | 57.4 | 179
6 | CCCC(Oc1cc(C)c(-n2cc(Cl)cn2)c(C)c1)c1ccc(C(=O)NCCC(=O)O)cc1 (single isomer, unassigned) [Example 145, 3-(4-(1-(4-(4-chloro-1H-pyrazol-1-yl)-3,5-dimethylphenoxy)butyl)benzamido)propanoic acid] | 93.2 | 156
7 | O=C(O)CCNC(=O)c1ccc([C@@H](Nc2ccc(-n3cc(C(F)(F)F)cn3)nc2)C2CCCCC2)cc1 (single isomer, unassigned) [Example 146, 3-(4-(cyclohexyl(6-(4-(trifluoromethyl)-1H-pyrazol-1-yl)pyridine-3-ylamino)methyl)benzamido)propanoic acid] | 9.05 | 21
8 | O=C(O)CCNC(=O)c1ccc([C@@H](Nc2ccc(-n3cc(C(F)(F)F)cn3)nc2)C2CCCCC2)cc1 (single isomer, unassigned) [Example 147, 3-(4-(cyclohexyl(6-(4-(trifluoromethyl)-1H-pyrazol-1-yl)pyridine-3-ylamino)methyl)benzamido)propanoic acid] | 26.7 | 343
9 | CC1(C)CC(C(Oc2cnc(-n3cc(C(F)(F)F)cn3)nc2)c2ccc(C(=O)NCCC(=O)O)cc2)C1 (single isomer, unassigned; isomer 1) [Example 155, 3-(4-((3,3-dimethylcyclobutyl)(2-(4-(trifluoromethyl)-1H-pyrazol-1-yl)pyrimidin-5-yloxy)methyl)benzamido)propanoic acid, Isomer 1] | 94.9 | 313
10 | CC1(C)CC(C(Oc2cnc(-n3cc(C(F)(F)F)cn3)nc2)c2ccc(C(=O)NCCC(=O)O)cc2)C1 (single isomer, unassigned; isomer 1) [Example 156, 3-(4-((3,3-dimethylcyclobutyl)(2-(4-(trifluoromethyl)-1H-pyrazol-1-yl)pyrimidin-5-yloxy)methyl)benzamido)propanoic acid, Isomer 1] | 251 | 246
11 | CC1(C)CC(C(Nc2cnc(-n3cc(C(F)(F)F)cn3)nc2)c2ccc(C(=O)NCCC(=O)O)cc2)C1 (single isomer, unassigned; isomer 1) [Example 157, 3-(4-((3,3-dimethylcyclobutyl)(2-(4-(trifluoromethyl)-1H-pyrazol-1-yl)pyrimidin-5-ylamino)methyl)benzamido)propanoic acid, Isomer 1] | 5.55 | 18.6
12 | CCCC(Nc1ccc(-n2cc(-c3ccccc3)cn2)nc1)c1ccc(C(=O)NCCC(=O)O)cc1 (single isomer, unassigned; isomer 1) [Example 160, 3-(4-(1-(6-(4-phenyl-1H-pyrazol-1-yl)pyridine-3-ylamino)butyl)benzamido)propanoic acid, Isomer 1] | 29 | 111
13 | CCCC(Nc1ccc(-n2cc(CC)c(C)n2)nc1)c1ccc(C(=O)NCCC(=O)O)cc1 (single isomer, unassigned; isomer 1) [Example 166, 3-(4-(1-(6-(4-ethyl-3-methyl-1H-pyrazol-1-yl)pyridin-3-ylamino)butyl)benzamido)propanoic acid, Isomer 1] | 91.5 | 94.8
14 | Cc1cc(C(Nc2ccc(C(=O)NCCC(=O)O)cn2)C2CCCC2)cc(C)c1-n1cc(C(F)(F)F)cn1 (single isomer, unassigned; isomer 1) [Example 170, (3-(6-((cyclopentyl(3,5-dimethyl-4-(4-(trifluoromethyl)-1H-pyrazol-1-yl)phenyl)methyl)amino)nicotinamido)propanoic acid, Isomer 1] | 224 | 1300
15 | O=C(O)CCNC(=O)c1ccc([C@H](CCC(F)(F)F)Nc2ccc(-n3cc(C(F)(F)F)cn3)nc2)cc1 (single isomer, unassigned; isomer 1) [Example 172, N-{4-[4,4,4-trifluoro-1-({6-[4-(trifluoromethyl)-1H-pyrazol-1-yl]pyridin-3-yl}amino)butyl]benzoyl}-beta-alanine, Isomer 1] | 8.18 | 59.9
16 | CC1(C)CC([C@H](Nc2ccc(-n3cc(C4CC4)cn3)nc2)c2ccc(C(=O)NCCC(=O)O)cc2)C1 (single isomer, unassigned; isomer 1) [Example 174, N-{-4-[{[6-(4-cyclopropyl-1H-pyrazol-1-yl)pyridin-3-yl]amino}(3,3-dimethylcyclobutyl)methyl]benzoyl}-beta-alanine, Isomer 1] | 57 | 252
17 | CC(C)(C)[C@H](Nc1ccc(-n2cc(C(F)(F)F)cn2)nc1)c1ccc(C(=O)NCCC(=O)O)cc1 (single isomer, unassigned; isomer 1) [Example 179, 3-(4-(2,2-dimethyl-1-((6-(4-(trifluoromethyl)-1H-pyrazol-1-yl)pyridin-3-yl)amino)propyl)benzamido)propanoic acid, Isomer 1] | 22.1 | 134
18 | CC(C)(C)[C@H](Nc1ccc(-n2cnc(C(F)(F)F)c2)nc1)c1ccc(C(=O)NCCC(=O)O)cc1 (single isomer, unassigned; isomer 1) [Example 182, 3-(4-(2,2-dimethyl-1-((6-(4-(trifluoromethyl)-1H-imidazol-1-yl)pyridin-3-yl)amino)propyl)benzamido)propanoic acid, Isomer 1] | 156 | 424
19 | Cc1nn(-c2ccc(N[C@H](c3ccc(C(=O)NCCC(=O)O)cc3)C3CCCC3)cn2)cc1Cl (single isomer, unassigned; isomer 1) [Example 191, 3-(4-((6-(4-chloro-3-methyl-1H-pyrazol-1-yl)pyridin-3-ylamino)(cyclopentyl)methyl)benzamido)propanoic acid, Isomer 1] | 29.3 | 11.7
20 | CC1(C)CC(C(Nc2cnc(-n3cc(C(F)(F)F)cn3)nc2)c2ccc(C(=O)NCCC(=O)O)cc2)C1 (single isomer, unassigned; isomer 2) [Example 158, 3-(4-((3,3-dimethylcyclobutyl)(2-(4-(trifluoromethyl)-1H-pyrazol-1-yl)pyrimidin-5-ylamino)methyl)benzamido)propanoic acid, Isomer 2] | 41 | 155
21 | CCCC(Nc1ccc(-n2cc(-c3ccccc3)cn2)nc1)c1ccc(C(=O)NCCC(=O)O)cc1 (single isomer, unassigned; isomer 2) [Example 161, 3-(4-(1-(6-(4-phenyl-1H-pyrazol-1-yl)pyridine-3-ylamino)butyl)benzamido)propanoic acid, Isomer 2] | 25.7 | 9.49
22 | CCCC(Nc1ccc(-n2cc(CC)c(C)n2)nc1)c1ccc(C(=O)NCCC(=O)O)cc1 (single isomer, unassigned; isomer 2) [Example 167, 3-(4-(1-(6-(4-ethyl-3-methyl-1H-pyrazol-1-yl)pyridin-3-ylamino)butyl)benzamido)propanoic acid, Isomer 2] | 414 | 1140
23 | Cc1cc(C(Nc2ccc(C(=O)NCCC(=O)O)cn2)C2CCCC2)cc(C)c1-n1cc(C(F)(F)F)cn1 (single isomer, unassigned; isomer 2) [Example 171, 3-(6-((cyclooentyl(3,5-dimethyl-4-(4-(trifluoromethyl)-1H-pyrazol-1-yl)phenyl)methyl)amino)nicotinamido)propanoic acid, Isomer 2] | 28 | 150
24 | O=C(O)CCNC(=O)c1ccc([C@H](CCC(F)(F)F)Nc2ccc(-n3cc(C(F)(F)F)cn3)nc2)cc1 (single isomer, unassigned; isomer 2) [Example 173, N-{4-[4,4,4-trifluoro-1-({6-[4-(trifluoromethyl)-1H-pyrazol-1-yl]pyridin-3-yl}amino)butyl]benzoyl}-beta-alanine, Isomer 2] | 26.6 | 641
